{"source": "patent US20040038950A1", "about": "“Pharmaceutical composition for treating IL-1 related diseases or disorders” (priority 2002, published 2004)", "key": {"TIMP-1 mRNA": {"test_system": "TIMP-1 mRNA", "assay": "RT-PCR of TIMP-1 mRNA in chondrocytes", "assay_type": "cell-based, human", "protocol": "(§1) Chondrocytes were isolated from the knee joint of patient undergoing a knee replacement due to osteoarthritis. Cartilage was digested with 0.2% protease Type XIV (Sigma) for 1 hour, followed by 3-hour incubation with 0.2% collagenase Type IA (Sigma) at 37° C. Following the incubation, the undigested cartilage fragments were removed using a 70 μm Nylon sieve. Chondrocytes were washed with DPBS and maintained in monolayer culture for 7 days in Dulbecco's modified Eagle's medium (DMEM; Life Technologies Inc.) which contained 10% fetal bovine serum (FBS; Life Technologies), 100 units/ml penicillin-streptomycin (Life Technologies) and 25 μg/ml L-ascorbic acid (Sigma). All experiments were performed with primary or first passage cells. The preparation of chondrocytes in alginate beads was carried out with 4×10^6 cells per 1 ml of alginate. Alginate cultures were maintained for 7 days at 37° C., 5% CO2 and 95% humidity and incubated with various concentrations of DHEA (0, 10, 50 or 100 μM) for a varing period of time. DHEA was purchased from Sigma and used after dissolving either in ethanol or dimethyl sulfoxide (DMSO). After a desired incubation period, cells were harvested by solubilizing the alginate beads in citrate buffer (55 mM sodium citrate, 0.15 M NaCl, pH 7.0) for 10 min at 37° C. and by centrifugation (300 g, 5 min).\nTotal RNA from chondrocytes was extracted using RNeasy Mini Kit (QIAGEN). Reverse transcription from 1 μg of total RNA was conducted using First Strand cDNA Synthesis Kit (MBI Fermentas) according to manufacturer's recommendation with random hexamers. The resulting cDNA was then amplified by polymerase chain reaction using AccuPower PCR Premix (Bioneer, Korea) in a final volume of 20 μl using three thermocycler temperatures (30 sec at […], 30 sec at 60° C., and 30 sec at […]). All reactions were determined to be in the linear range of amplification with the cycle number ranging from 14 to 30. The PCR products were analyzed by separation on a 2% agarose gel followed by ethidium bromide staining. Following electrophoresis, photographs were taken and analyzed using a densitometric program (TINA; Raytest Isotopenmeβgerate, Germany). Integrated density values for the genes in question were then normalized to the glyceraldehyde-3-phosphate dehydrogenase (GAPDH) values for a semiquantitative assessment. After normalizing with respect to GAPDH, percentage increase or decrease was determined. Each experiment was repeated at least three times. […]"}, "TIMP-1": {"test_system": "TIMP-1", "assay": "Western blot of TIMP-1 in chondrocyte lysates", "assay_type": "cell-based, human", "conditions": "0, 10 or 100 μ DHEA, three days", "protocol": "as §1, with “After a desired incubation period, cells were harvested by solubilizing the alginate beads in citrate buffer (55 mM sodium citrate, 0.15 M NaCl, pH 7.0) for 10 min at 37° C. and by centrifugation (300 g, 5 min).” left out\nTo investigate the effect of DHEA on the protein concentration, Western blot analysis was performed. […] Protein concentration of the supernatant was determined by Bio-Rad protein assay (Bio-Rad, USA) using bovine serum albumin (BSA) as a standard. […]"}, "[1]": {"test_system": "patients diagnosed to have degenerative arthritis", "assay": "Topical application of DHEA to arthritic patient", "assay_type": "in vivo, human", "conditions": "for resting pain score: before 14.34; for joint effusion score: before 2.12; for medial joint line tenderness score: before 2.18; for motion pain score: before 8.11; for pain at ascending/descending stairs score: before 10.87", "protocol": "Ten patients diagnosed to have degenerative arthritis were tested to investigate the therapeutic effect of DHEA in topical application. Testees had the symptoms including dolor of knee joint (resting or motion pain), swelling, deformation, tenderness, crepitation or stiffness of joint. Patients who had received intraarticular injection, steroid treatment or surgery within 1 month before this test were excluded, as well as those who had severe cardiac or liver diseases, kidney failure, gastrointestinal diseases, or poor systemic condition such as anomalotrophy. Besides, women who were pregnant or breast-feeding babies were excluded in this study.\nThe volunteers were randomly grouped into Group I and Group II, and subject to the experiment for topical application of DHEA. A portion of knee joint showing dolor symptom was coated with either 5% DHEA or PBS (phosphate buffered saline) twice a day for 1 month. Any alteration of symptom was checked prior to the application, 1 week and then again 1 month during the application regimen.\nThe severity of pain was scored ranging from 0 (most severe pain) to 20 points (no pain) at an interval of 5 points.\nIn addition, both joint effusion and medial joint-line tenderness were recorded during a physical test administered by a doctor based on the point rating scale: highness, 4; medium, 3; slightness, 2; and not found, 0.\nThe opinions on symptom were recorded as 5 categories relying on the subjective opinions of patients and the opinions of doctors regarding both dolor of patients and the results of physical tests: superiority, goodness, mediocrity, poorness and exceeding poorness.\nIn addition, the assessment regarding the level of improvement on symptoms was recorded in accordance with the following criteria: 3-step improvement, “exceeding improvement”; 2-step improvement, “improvement”; 1-step improvement, “slight improvement”; “no change”; and “aggravation”."}, "[2]": {"conditions": "Group I (5 patients), 1 month after application"}, "[3]": {"conditions": "Group I, topical, 1 month after application"}, "[4]": {"conditions": "Group I, topical, 1 week after application"}, "[5]": {"conditions": "Group I, topical, 1 week and 1 month vs before application"}}, "data": [{"smiles": "C[C@]12CC[C@H](O)CC1=CC[C@@H]1[C@@H]2CC[C@]2(C)C(=O)CC[C@@H]12", "note": "[DHEA, dehyroepiandrosterone]", "values": [{"measurement": "TIMP-1 mRNA expression, maximum rate of enhancement", "setting": "TIMP-1 mRNA; 50 μM, 72 hours", "value": 120, "unit": "%"}, {"measurement": "TIMP-1 mRNA expression, up-regulation", "setting": "TIMP-1 mRNA; 100 μM, after 72 hr", "value": 129, "unit": "%"}, {"measurement": "TIMP-1 mRNA expression", "setting": "TIMP-1 mRNA; 100 μM, up to 48 hr", "value": "unaffected"}, {"measurement": "TIMP-1 mRNA enhancement effect", "setting": "TIMP-1 mRNA; DHEA concentration above 100 μM", "value": "diminished"}, {"measurement": "translational level of mature TIMP-1 (Western blot)", "setting": "TIMP-1", "value": "increased with increasing concentration of DHEA"}, {"measurement": "opinion of doctor: no change", "setting": "[1]; [2]", "value": 4, "unit": "persons"}, {"measurement": "opinion of doctor: slight improvement", "setting": "[1]; [2]", "value": 1, "unit": "person"}, {"measurement": "opinion of patient: aggravation", "setting": "[1]; [2]", "value": 1, "unit": "person"}, {"measurement": "opinion of patient: no change", "setting": "[1]; [2]", "value": 3, "unit": "persons"}, {"measurement": "opinion of patient: slight improvement", "setting": "[1]; [2]", "value": 1, "unit": "person"}, {"measurement": "resting pain score", "setting": "[1]; Group I, topical 5% DHEA twice a day, 1 week after application", "value": 15.29, "unit": "points"}, {"measurement": "joint effusion score", "setting": "[1]; [3]", "value": 2.27, "unit": "points"}, {"measurement": "medial joint line tenderness score", "setting": "[1]; [3]", "value": 2.54, "unit": "points"}, {"measurement": "motion pain score", "setting": "[1]; [3]", "value": 8.51, "unit": "points"}, {"measurement": "pain at ascending/descending stairs score", "setting": "[1]; [3]", "value": 10.49, "unit": "points"}, {"measurement": "resting pain score", "setting": "[1]; [3]", "value": 15.02, "unit": "points"}, {"measurement": "joint effusion score", "setting": "[1]; [4]", "value": 1.98, "unit": "points"}, {"measurement": "medial joint line tenderness score", "setting": "[1]; [4]", "value": 2.11, "unit": "points"}, {"measurement": "motion pain score", "setting": "[1]; [4]", "value": 8.34, "unit": "points"}, {"measurement": "pain at ascending/descending stairs score", "setting": "[1]; [4]", "value": 10.11, "unit": "points"}, {"measurement": "change of joint effusion", "setting": "[1]; [5]", "value": "not a significant change"}, {"measurement": "change of medial joint line tenderness", "setting": "[1]; [5]", "value": "not a significant change"}, {"measurement": "change of motion pain", "setting": "[1]; [5]", "value": "not a significant change"}, {"measurement": "change of pain at ascending/descending stairs", "setting": "[1]; [5]", "value": "not a significant change"}, {"measurement": "change of resting pain", "setting": "[1]; [5]", "value": "not a significant change"}]}]}
